For 17 compounds, melting point and IC50 results are on record in patent publication US20060166989A1, “2-naphthamide derivatives” (Bayer Healthcare AG, priority 2002, published 2006).

pIC50: −log10 of the molar value. Bounds are passed on as bounds.

Broadly, the melting point is the temperature, or range, at which the solid turns liquid.

The target of one series is T1, IP receptor (Homo sapiens, UniProt P43119).
T1 construct: HEL cells were collected with centrifugation and washed with cAMP assay buffer; host or cells: HEL 92.1.7 human erythroleukemia cells
As to the kind of experiment: Iloprost-induced cAMP production assay in HEL cells (Assay 2). The settings on record: read-out: Activity grade assay 2. It is filed as cell-based. For orientation: Cyclic AMP is a second messenger, typically raised through Gs and lowered through Gi signalling.

T1 sequence (P43119 whole entry): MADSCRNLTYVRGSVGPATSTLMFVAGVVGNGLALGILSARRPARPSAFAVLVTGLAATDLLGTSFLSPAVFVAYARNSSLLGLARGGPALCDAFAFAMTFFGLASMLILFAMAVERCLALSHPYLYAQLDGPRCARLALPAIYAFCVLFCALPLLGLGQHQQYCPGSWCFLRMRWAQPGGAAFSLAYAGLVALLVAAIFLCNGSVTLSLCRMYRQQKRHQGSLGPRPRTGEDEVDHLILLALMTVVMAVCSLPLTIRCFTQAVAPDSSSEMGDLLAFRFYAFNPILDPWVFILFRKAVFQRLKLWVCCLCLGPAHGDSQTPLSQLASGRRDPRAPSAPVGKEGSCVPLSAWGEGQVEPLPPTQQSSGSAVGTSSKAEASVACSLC

The compound `CCCCOc1cccc(COc2ccc3cc(C(=O)NC(Cc4ccccc4)C(=O)O)ccc3c2)c1` (stereo not shown) [Example 1-90] came in with a melting point of 172 °C. Besides, the pIC50 at IP receptor is 6.00 to 7.00.
Compound `O=C(NC(Cc1cccc2ccccc12)C(=O)O)c1ccc2cc(OCc3ccccc3)ccc2c1` (stereo not shown) [Example 1-48] gave a melting point of 218 °C. At IP receptor, the pIC50 is greater than 7.00.
The compound `O=C(NC(Cc1ccccc1)C(=O)O)c1ccc2cc(OCCCn3cccc3)ccc2c1` (stereo not shown) [Example 1-63] showed a melting point of 195 °C. For the same compound, the pIC50 on IP receptor is 6.00 to 7.00.
As to `O=C(NC(Cc1ccccc1)C(=O)O)c1ccc2cc(OCc3cccnc3)ccc2c1` (stereo not shown) [Example 1-8], the melting point was found to be 217 °C. Further, at IP receptor, the pIC50 was greater than 7.00.
The compound `O=C(NC(Cc1ccccc1)C(=O)O)c1ccc2cc(OCc3ccccc3Br)ccc2c1` (stereo not shown) [Example 1-51] yielded a melting point of 206 to 207 °C. Besides, on IP receptor, the pIC50 was greater than 7.00.
`O=C(NC(Cc1ccccc1)C(=O)O)c1ccc2cc(OCc3cccc(O)c3)ccc2c1` (stereo not shown) [Example 1-85] returned a melting point of 157 °C. On IP receptor, the pIC50 was greater than 7.00.
Compound `O=C(N[C@H](Cc1ccccc1)C(=O)O)c1ccc2cc(OCc3ccccc3)ccc2c1` [Example 2-1, N-[6-(benzyloxy)-2-naphthoyl]-D-phenylalanine] displayed a melting point of 179 °C. The pIC50 at IP receptor was greater than 7.00.
The compound `O=C(NC(Cc1ccccc1)C(=O)O)c1ccc2cc(OCc3ccccc3OC(F)(F)F)ccc2c1` (stereo not shown) [Example 1-37] yielded a melting point of 158 °C. On IP receptor, the pIC50 was less than 6.00.
In the case of `O=C(N[C@@H](Cc1ccccc1)C(=O)O)c1ccc2cc(Oc3ccccc3)ccc2c1` [Example 3-1, N-(6-phenoxy-2-naphthoyl)phenylalanine], the melting point is 179 to 180 °C. The pIC50 at IP receptor is less than 6.00.
The like results for `O=C(NC(Cc1ccccc1)C(=O)O)c1ccc2cc(OCc3c(Cl)cccc3Cl)ccc2c1` (stereo not shown) [Example 1-41] were, in that order, 245 °C and 6.00 to 7.00.
Take `O=C(NC(Cc1ccccc1)C(=O)O)c1ccc2cc(OCc3ccc[n+]([O-])c3)ccc2c1` (stereo not shown) [Example 1-87]: the melting point was 252 °C (dec.). In addition, the pIC50 at IP receptor was less than 6.00.
Consider `O=C(NC(Cc1ccccc1)C(=O)O)c1ccc2cc(OCCn3cccc3)ccc2c1` (stereo not shown) [Example 1-11], for which the melting point lay in the range of 168 to 169 °C. For the same compound, the pIC50 on IP receptor is greater than 7.00.
Taken in the same sequence, the figures for `O=C(NC(Cc1ccccc1)C(=O)O)c1ccc2cc(OCc3cccc(OCC4CC4)c3)ccc2c1` (stereo not shown) [Example 1-89] were 179 °C and 6.00 to 7.00.
On to `O=C(NC(Cc1ccc(F)cc1)C(=O)O)c1ccc2cc(OCc3ccccc3)ccc2c1` (stereo not shown) [Example 1-22], for which the melting point was 214 to 216 °C. Moreover, the pIC50 at IP receptor is greater than 7.00.
`O=C(NC(Cc1ccccc1)C(=O)O)c1ccc2cc(OCCc3ccccc3)ccc2c1` (stereo not shown) [Example 1-19] had a melting point of 144 °C. In addition, at IP receptor, the pIC50 was greater than 7.00.
As to `O=C(NC(Cc1ccc2ccccc2c1)C(=O)O)c1ccc2cc(OCc3ccccc3)ccc2c1` (stereo not shown) [Example 1-67], the melting point lay within 226 to 227 °C. Further, the pIC50 on IP receptor is greater than 7.00.
As for `COc1ccc(COc2ccc3cc(C(=O)NC(Cc4ccccc4)C(=O)O)ccc3c2)cc1` (stereo not shown) [Example 1-31], the melting point turned out to be 188 °C. Also, the pIC50 at IP receptor was less than 6.00.
